Series [1] concerns Erythrocyte. Kind of series: Hemolytic activity in human erythrocytes at 10 ug/ml incubated for 1 hr by absorbance based analysis. Conditions: dose 10 µg/ml. It is filed as toxicity, cell-based.
Series [2] in a line: Ion conductance property of compound in Diphytanoylphosphatidyl-choline bilayer assessed as ion channel forming ability at 1 uM treated at cis-side of the membrane at +100 mV by tip-dip patch clamp method.
Series [3] has as its system Erythrocyte. Kind of series: Hemolytic activity in human erythrocytes at 50 ug/ml incubated for 1 hr by absorbance based analysis. It is filed as toxicity, cell-based. The settings on record: dose 50 µg/ml.

The structures appear in SMILES notation. Active and inactive are the calls of the source. No cut-off for these calls is given here. Where a SMILES comes first, the peptide text is derived from it. [ ]: non-standard residue; d: D form. Aib = CC(C)(N)C(=O)O

Turning to `CC[C@H](C)[C@H](NC(=O)[C@@H]1CCCN1C(=O)C(C)(C)NC(=O)[C@@H](NC(=O)[C@@H](NC(=O)[C@@H]1CCCN1C(=O)C(C)(C)NC(=O)[C@@H](NC(=O)[C@@H](NC(=O)[C@H](CC(N)=O)NC(=O)C(C)(C)NC(C)=O)[C@@H](C)CC)[C@@H](C)CC)[C@@H](C)CC)[C@@H](C)CC)C(=O)O` (Ac-[Aib]NII[Aib]PII[Aib]PI-OH), the Activity entry in series [1] is reported as “Non-Toxic”; in series [3], “Toxic”. In addition, in series [2], the result was Active.

`CC[C@H](C)[C@H](NC(=O)[C@H](CC(N)=O)NC(=O)C(C)(C)NC(C)=O)C(=O)N[C@H](C(=O)NC(C)(C)C(=O)N1CCC[C@H]1C(=O)N[C@H](C(=O)N[C@H](C(=O)NC(C)(C)C(=O)N1CCC[C@H]1C(=O)N[C@@H](CC(C)C)C(=O)O)[C@@H](C)CC)[C@@H](C)CC)[C@@H](C)CC` (Ac-[Aib]NII[Aib]PII[Aib]PL-OH): in series [2], the result was Active. Also, the Activity result in series [3] was “Toxic”.

As for `CC[C@H](C)[C@H](NC(=O)[C@@H]1CCCN1C(=O)C(C)(C)NC(=O)[C@H](CC(C)C)NC(=O)[C@@H](NC(=O)[C@@H]1CCCN1C(=O)C(C)(C)NC(=O)[C@@H](NC(=O)[C@@H](NC(=O)[C@H](CC(N)=O)NC(=O)C(C)(C)NC(C)=O)[C@@H](C)CC)[C@@H](C)CC)[C@@H](C)CC)C(=O)O` (Ac-[Aib]NII[Aib]PIL[Aib]PI-OH), the Activity entry in series [1] is on record as “Non-Toxic”; in series [3], “Toxic”. Also, in series [2], the outcome was Active.

For the molecule `CC[C@H](C)[C@H](NC(=O)[C@H](CC(N)=O)NC(=O)C(C)(C)NC(C)=O)C(=O)N[C@H](C(=O)NC(C)(C)C(=O)N1CCC[C@H]1C(=O)N[C@H](C(=O)N[C@@H](CC(C)C)C(=O)NC(C)(C)C(=O)N1CCC[C@H]1C(=O)N[C@@H](CC(C)C)C(=O)O)[C@@H](C)CC)[C@@H](C)CC` (Ac-[Aib]NII[Aib]PIL[Aib]PL-OH), the results for the Activity result in series [1] and in series [3] were “Non-Toxic” and “Toxic”, respectively. For the same molecule, the outcome in series [2] was inactive.

`CC[C@H](C)[C@H](NC(=O)[C@@H]1CCCN1C(=O)C(C)(C)NC(=O)[C@H](CC(C)C)NC(=O)[C@H](CC(C)C)NC(=O)[C@@H]1CCCN1C(=O)C(C)(C)NC(=O)[C@@H](NC(=O)[C@@H](NC(=O)[C@H](CC(N)=O)NC(=O)C(C)(C)NC(C)=O)[C@@H](C)CC)[C@@H](C)CC)C(=O)O` (Ac-[Aib]NII[Aib]PLL[Aib]PI-OH): the results for the Activity result in series [1] and in series [3] were “Non-Toxic” and “Toxic”, respectively. For the same molecule, in series [2], the result was Active.

On to `CC[C@H](C)[C@H](NC(=O)[C@H](CC(N)=O)NC(=O)C(C)(C)NC(C)=O)C(=O)N[C@H](C(=O)NC(C)(C)C(=O)N1CCC[C@H]1C(=O)N[C@@H](CC(C)C)C(=O)N[C@@H](CC(C)C)C(=O)NC(C)(C)C(=O)N1CCC[C@H]1C(=O)N[C@@H](CC(C)C)C(=O)O)[C@@H](C)CC` (Ac-[Aib]NII[Aib]PLL[Aib]PL-OH), for which the Activity result in series [1] is “Non-Toxic”; in series [3], “Toxic”. The result in series [2] was Active.

With `CC[C@H](C)[C@H](NC(=O)[C@H](CC(N)=O)NC(=O)C(C)(C)NC(C)=O)C(=O)N[C@@H](CC(C)C)C(=O)NC(C)(C)C(=O)N1CCC[C@H]1C(=O)N[C@@H](CC(C)C)C(=O)N[C@@H](CC(C)C)C(=O)NC(C)(C)C(=O)N1CCC[C@H]1C(=O)N[C@@H](CC(C)C)C(=O)O` (Ac-[Aib]NIL[Aib]PLL[Aib]PL-OH), the values for the Activity result in series [1] and in series [3] were “Non-Toxic” and “Toxic”, respectively. For the same molecule, the result in series [2] was inactive.

For the molecule `CC[C@H](C)[C@H](NC(=O)[C@@H]1CCCN1C(=O)C(C)(C)NC(=O)[C@@H](NC(=O)[C@@H](NC(=O)[C@@H]1CCCN1C(=O)C(C)(C)NC(=O)[C@@H](NC(=O)[C@H](CC(C)C)NC(=O)[C@H](CC(N)=O)NC(=O)C(C)(C)NC(C)=O)[C@@H](C)CC)[C@@H](C)CC)[C@@H](C)CC)C(=O)O` (Ac-[Aib]NLI[Aib]PII[Aib]PI-OH), the results for the Activity result in series [1] and in series [3] were “Non-Toxic” and “Toxic”, respectively. The outcome in series [2] was Active.

Turning to `CC[C@H](C)[C@H](NC(=O)[C@H](CC(C)C)NC(=O)[C@H](CC(N)=O)NC(=O)C(C)(C)NC(C)=O)C(=O)NC(C)(C)C(=O)N1CCC[C@H]1C(=O)N[C@H](C(=O)N[C@H](C(=O)NC(C)(C)C(=O)N1CCC[C@H]1C(=O)N[C@@H](CC(C)C)C(=O)O)[C@@H](C)CC)[C@@H](C)CC` (Ac-[Aib]NLI[Aib]PII[Aib]PL-OH), the Activity result in series [1] is reported as “Non-Toxic”; in series [3], “Toxic”. Further, in series [2], the outcome was inactive.

Regarding `CC[C@H](C)[C@H](NC(=O)[C@@H]1CCCN1C(=O)C(C)(C)NC(=O)[C@@H](NC(=O)[C@@H](NC(=O)[C@@H]1CCCN1C(=O)C(C)(C)NC(=O)[C@H](CC(C)C)NC(=O)[C@H](CC(C)C)NC(=O)[C@H](CC(N)=O)NC(=O)C(C)(C)NC(C)=O)[C@@H](C)CC)[C@@H](C)CC)C(=O)O` (Ac-[Aib]NLL[Aib]PII[Aib]PI-OH), in series [2], the result was Active. Also, in series [3], the Activity entry is on record as “Toxic”.

Turning to `CC[C@H](C)[C@H](NC(=O)[C@@H](NC(=O)[C@@H]1CCCN1C(=O)C(C)(C)NC(=O)[C@H](CC(C)C)NC(=O)[C@H](CC(C)C)NC(=O)[C@H](CC(N)=O)NC(=O)C(C)(C)NC(C)=O)[C@@H](C)CC)C(=O)NC(C)(C)C(=O)N1CCC[C@H]1C(=O)N[C@@H](CC(C)C)C(=O)O` (Ac-[Aib]NLL[Aib]PII[Aib]PL-OH), the Activity result in series [1] is given as “Non-Toxic”; in series [3], “Toxic”.

Turning to `CC[C@H](C)[C@H](NC(=O)[C@@H]1CCCN1C(=O)C(C)(C)NC(=O)[C@@H](NC(=O)[C@H](CC(C)C)NC(=O)[C@@H]1CCCN1C(=O)C(C)(C)NC(=O)[C@H](CC(C)C)NC(=O)[C@H](CC(C)C)NC(=O)[C@H](CC(N)=O)NC(=O)C(C)(C)NC(C)=O)[C@@H](C)CC)C(=O)O` (Ac-[Aib]NLL[Aib]PLI[Aib]PI-OH), in series [2], the outcome was Active. The Activity entry in series [3] was “Toxic”.

With `CC[C@H](C)[C@H](NC(=O)[C@H](CC(C)C)NC(=O)[C@@H]1CCCN1C(=O)C(C)(C)NC(=O)[C@H](CC(C)C)NC(=O)[C@H](CC(C)C)NC(=O)[C@H](CC(N)=O)NC(=O)C(C)(C)NC(C)=O)C(=O)NC(C)(C)C(=O)N1CCC[C@H]1C(=O)N[C@@H](CC(C)C)C(=O)O` (Ac-[Aib]NLL[Aib]PLI[Aib]PL-OH), the Activity result in series [1] is “Non-Toxic”; in series [3], “Toxic”.

As to `CC[C@H](C)[C@H](NC(=O)[C@@H]1CCCN1C(=O)C(C)(C)NC(=O)[C@H](CC(C)C)NC(=O)[C@H](CC(C)C)NC(=O)[C@@H]1CCCN1C(=O)C(C)(C)NC(=O)[C@H](CC(C)C)NC(=O)[C@H](CC(C)C)NC(=O)[C@H](CC(N)=O)NC(=O)C(C)(C)NC(C)=O)C(=O)O` (Ac-[Aib]NLL[Aib]PLL[Aib]PI-OH), the Activity entry in series [1] is listed as “Non-Toxic”; in series [3], “Toxic”. Also, in series [2], the outcome was Active.

Consider `CC(=O)NC(C)(C)C(=O)N[C@@H](CC(N)=O)C(=O)N[C@@H](CC(C)C)C(=O)N[C@@H](CC(C)C)C(=O)NC(C)(C)C(=O)N1CCC[C@H]1C(=O)N[C@@H](CC(C)C)C(=O)N[C@@H](CC(C)C)C(=O)NC(C)(C)C(=O)N1CCC[C@H]1C(=O)N[C@@H](CC(C)C)C(=O)O` (Ac-[Aib]NLL[Aib]PLL[Aib]PL-OH), for which the Activity entry in series [1] is given as “Non-Toxic”; in series [3], “Toxic”. In addition, the result in series [2] was inactive.
